# Where “and” joins values, the source holds several entries; their conditions need not be identical. Equal values may be shown once.
# Legend:
# [1] = test system: animal models of inflammatory and neuropathic pain; settings: administered locally; formalin test and spinal nerve ligation; cited from earlier work
# patients = settings: Langman et al, Lancet 1994; cited from earlier work
# [2] = test system: subjects with osteoarthritis of the knee; test: Osteoarthritis of the knee safety study (Phase 1): safety, tolerability and VAS pain after intra-articular infiltration; format: in vivo, human; settings: for patients reporting transient burning pain immediately following instillation: after 2% lignocaine
# Procedure: The primary objective of the study was to evaluate the safety and tolerability of intra-articular capsaicin, when co-administered with intra-articular local anesthetic, compared to placebo, in subjects with end-stage osteoarthritis of the knee, already scheduled to receive knee replacements.
# The study was designed to include 16 evaluation subjects. […] Sixteen subjects completed the study.
# Patients were treated randomly and in double-blind fashion in four treatment groups, with each group having a progressively longer interval between the intra-articular administration of study medication and subsequent total knee replacement (2, 4, 7, and 14 days). […] Gross and microscopic pathology analysis was completed for each treatment group before the next treatment group was treated.
# Each subject had 3 study visits: a Screening Day (Day −7 to −1), the Treatment Day (Day 0), and a Post-Treatment Day (scheduled for Day +2, +4, +7, or +14). On the Treatment Day the subject was randomized, pre-treatment evaluation was performed. The patients were brought into the procedure room, and a VAS pain score was taken (0 mm—no pain, 100 mm—extreme pain). Once the patient had marked his or her pain on the card, he/she was prepped for knee cannulation. Once the cannula was placed, the patient received by intra-articular infiltration, 3 mg/kg (maximum dose of 200 mg) of 2% lignocaine into the knee scheduled to be replaced.
# VAS pain scores as well as verbal reports were taken immediately following administration, as well as prior to knee replacement surgery. No subjects discontinued from the study due to adverse events.
# On the Post-Treatment Day, study evaluation was performed followed by the scheduled knee replacement, with intra-operative bone and soft tissue biopsies performed for subsequent examination. […] This therefore left the 3 placebo and 9 active patients from the 4 day, 7 day, and 14 day cohorts.
# rats = settings: systemic, cited from earlier work
# [3] = test system: subjects undergoing transpositional osteotomy (bunionectomy); test: Bunionectomy efficacy study (Phase II): VAS pain at the operation site and rescue analgesia; format: in vivo, human; settings: for VAS pain score, mean +/− SEM: 1000 μg into the wound, n = 11
# Procedure: The primary efficacy endpoint was the proportion of subjects in each treatment group requiring opioid analgesia in the first 24 hours post-operatively. The proportions were compared amongst treatment groups using the Cochran-Haenszel test. Secondary efficacy end points included: i) proportion of subjects in each treatment group requiring opioid analgesia in the first 36 hour period post-operatively (Similarly, the proportions were compared amongst treatment groups using the Cochran-Haenszel test); ii) proportion of subjects in each treatment group requiring opioid analgesia in the 10 day period post-operatively (Similarly, the proportions were compared amongst treatment groups using the Cochran-Haenszel test); iii) time to first usage of opioid analgesia in each treatment group (a survival analysis approach will be used: the product-limit (Kaplan-Meier) method will be applied to time to first usage of opioid analgesia. The median time to first usage of opioid analgesia will be estimated in both treatment groups. Pairwise comparisons will be performed to test for equality of the survival curves between the 2 treatment groups using both the log-rank and the Wilcoxon test); iv) total usage of analgesia in each treatment group (the total usage of analgesia will be compared by an analysis of variance with treatment and center as independent variables. A pairwise comparison will be performed between the treatment groups); and v) VAS assessment of pain at the site of operation in each treatment group (The VAS score at each time point will be compared by an analysis of variance with treatment and center as independent variables. A pairwise comparison will be performed between the treatment groups). […] The efficacy analysis was performed on the data obtained ten days postoperatively. The safety analysis was performed based on the safety data for the entire study, including the 6 week and 12 week follow-up periods. The blind was broken at the time the efficacy analysis was performed. However, the individual treatment assignment was available to the statistical analysis group only. All other personnel involved in the study, including the Investigator, study monitor and proprietary staff, remained blinded until the entire study was completed.
# The study was designed to include 40 evaluation subjects. […] Each subject had six (6) study visits: a Screening Day (Day −28 to −1), an Operation Day (Day 0), and four (4) Follow-up visits (scheduled for Days 3, 10 and weeks 6 and 12).
# On Operation Day (Day 0) the following was performed: a) Pre-operation: Prior to the initiation of an ankle block, inclusion/exclusion criteria assessment was performed. […] Immediately prior to wound closure, the Investigator slowly dripped the study medication (4 mL) from a syringe into the wound, ensuring even tissue exposure. The wound was then be closed according to normal practices and procedures.
# In the 24 hours following administration of study medication, vital signs (supine pulse rate and blood pressure) were recorded at 1, 2, 4 and 24 hours post administration. VAS assessment of pain at the operation site was performed at 1, 4, 8, 12 and 24 hours post administration. In those instances where VAS measurements coincide with blood sampling procedures, the VAS assessment was performed first. […] The quantity of each blood sample was 10 mL. […] Adverse events were spontaneously reported by the subject and recorded. […]
# [4] = human, in vivo, 300 ug
# Procedure: The pharmacokinetic parameters of Cmax, Tmax, AUC(0−tlast) and t½ were evaluated.
# [5] = cited from earlier work
compound,measurement,setting,value
CN(C)CCC=C1c2ccccc2CCc2ccccc21 [amitriptyline],local antinociceptive action,[1],produced local antinociceptive actions
CNCCCN1c2ccccc2CCc2ccccc21 [desipramine],local antinociceptive action,[1],produced local antinociceptive actions
CN1C(C(=O)Nc2ccccn2)=C(O)c2ccccc2S1(=O)=O [piroxicam],patients experiencing gross bleeding and ulceration,patients,up to 4%
"COc1cc(CNC(=O)CCCC/C=C/C(C)C)ccc1O [purified capsaicin, N-(4-hydroxy-3-methoxybenzyl)-8-methylnon-trans-6-enamide]",patients reporting transient burning pain immediately following instillation,[2]; 10 μg capsaicin intra-articular,0 of 4
same,patients reporting transient burning pain immediately following instillation,[2]; 100 μg capsaicin intra-articular,1 of 4
same,duration of post-administration (hyper)algesic pain,"[2]; 100 μg dose group, single subject",9 min
same,patients reporting transient burning pain immediately following instillation,[2]; 300 μg capsaicin intra-articular,4 of 4
same,duration of post-administration (hyper)algesic pain,"[2]; 300 μg dose group, individual subjects",17 minutes and 25 minutes (2×) and 42 minutes
same,tolerability,"[2]; 10, 100 and 300 μg intra-articular",well tolerated at all dose levels
same,treatment related systemic side effects,[2]; all dose levels,No treatment related systemic side effects were seen
same,gross and microscopic pathology,"[2]; all dose levels, knee tissue at replacement",normal
same,onset of post-administration (hyper)algesia after administration,"[2]; all episodes, 100 μg and 300 μg dose groups",≤ 5 min
same,effect on proprioception at the injected knee,[2]; any dose group at any time point,no discernable effect
same,average duration of post injection hyperalgesia,"[2]; burning sensation, 100 μg and 300 μg dose groups",less than thirty minutes
same,"reduction of VAS pain score, before administration versus day of surgery","[2]; capsaicin group (9 active patients, 10-300 μg), 4 day, 7 day and 14 day cohorts",62±14%
same,treatment related indication of efficacy (VAS),"[2]; dose levels 10 μg, 100 μg and 300 μg",No clear treatment related indication of efficacy
same,effect on radiation induced hyperalgesia,rats; final doses of 25 mg/kg or less prior to ultra violet radiation,prevented radiation induced hyperalgesia
same,effect on pain threshold,rats; final doses of 50 mg/kg or greater,pain threshold elevated
same,study subjects requiring rescue (opioid rescue),"[3]; 1000 μg prior to wound closure, within 72 hours, n=11",45%
same,"VAS pain score, mean +/− SEM",[3]; 8 hr,5.5 +/− 2.3
same,"VAS pain score, mean +/− SEM",[3]; 12 hr,8.2 +/− 3.8
same,"VAS pain score, mean +/− SEM",[3]; 24 hr,1.9 +/− 1.0
same,"VAS pain score, mean +/− SEM",[3]; 48 hr,5.9 +/− 2.5
same,AUC(0−tlast),[4],0.49883 ng·h/mL
same,solubility in organic solvents,"[5]; alcohol, ether, benzene and chloroform",freely soluble
same,solubility in water,[5]; water,practically insoluble
